The record followed here is patent US20230373985A1 (Origenis Gmbh, priority 2020, published 2023).

For assay [1], the target named is T1, wt human JAK1, catalytic site (Homo sapiens, UniProt P23458).
T1 construct: wt human JAK1, catalytic site; purchased ThermoFisher
In words: HTRF KinEASE assay, JAK1. Type of assay: biochemical. Particulars: 2.5 μM ATP; read-out: IC50, Activity Toward JAK1. In a few lines:
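Compounds in DMSO dilution were mixed with kinase, biotin-TK substrate and ATP and reacted for ≥30 min at room temperature. Detection reagents (antibody, streptavidin-XL665) were read 60 min later as HTRF, with emission ratios analysed per KinEASE protocol.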
Background: In TR-FRET formats the signal depends on donor and acceptor labels being close together.

Assay [2] concerns the target T2, wt human TYK2, catalytic site (Homo sapiens, UniProt P29597).
T2 construct: wt human TYK2, catalytic site; purchased SignalChem
T2 sequence (P29597 897-1176 limits assumed): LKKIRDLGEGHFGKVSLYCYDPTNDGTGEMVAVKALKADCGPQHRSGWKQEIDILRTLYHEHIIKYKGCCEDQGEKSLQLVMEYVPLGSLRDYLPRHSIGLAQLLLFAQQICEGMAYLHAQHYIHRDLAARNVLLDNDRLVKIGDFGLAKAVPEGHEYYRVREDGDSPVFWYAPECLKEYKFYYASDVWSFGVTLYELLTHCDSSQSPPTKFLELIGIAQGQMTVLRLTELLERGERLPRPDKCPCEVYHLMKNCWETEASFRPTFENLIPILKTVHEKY
In words: HTRF KinEASE assay, TYK2. Type of assay: biochemical. The following applies: 1 μM ATP; read-out: IC50, Activity Toward TYK2. In a few lines:
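Kinase reaction run at room temperature for at least 30 min: 2 nM TYK2 with 1 μM ATP, or 1 nM JAK2 with 100 μM ATP, each with 1 μM biotin-TK substrate. Phosphorylation detected by HTRF (60 min antibody/XL665) and evaluated from emission ratios.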

T1 sequence (P23458 875-1153 limits assumed): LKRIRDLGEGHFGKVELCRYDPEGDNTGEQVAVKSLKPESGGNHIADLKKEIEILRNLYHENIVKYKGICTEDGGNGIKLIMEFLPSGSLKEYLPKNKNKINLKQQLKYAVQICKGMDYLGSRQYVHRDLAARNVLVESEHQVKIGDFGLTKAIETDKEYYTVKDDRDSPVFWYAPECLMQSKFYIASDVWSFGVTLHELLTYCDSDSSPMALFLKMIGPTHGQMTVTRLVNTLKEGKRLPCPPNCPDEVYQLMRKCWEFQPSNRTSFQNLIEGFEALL

One may read the IC50 as the midpoint of a concentration-inhibition curve. With `CN(C)C1CCN(C(=O)c2ccc(Nc3cn(-c4c(Cl)cccc4Cl)nc3C(N)=O)nc2)CC1` [compound 442, 1-(2,6-dichlorophenyl)-4-((5-(4-(dimethylamino)piperidine-1-carbonyl)pyridin-2-yl)amino)-1H-pyrazole-3-carboxamide], the 50% inhibitory concentration (IC50) in assay [1] and in assay [2] was 0.1 to 1 µM each time.

On to `NC(=O)c1nn(-c2c(Cl)cccc2Cl)cc1Nc1ccc(C(=O)N2CC(F)C2)cn1` [compound 449, 1-(2,6-dichlorophenyl)-4-((5-(3-fluoroazetidine-1-carbonyl)pyridin-2-yl)amino)-1H-pyrazole-3-carboxamide], for which the IC50 in assay [1] and in assay [2] was 0.1 to 1 µM in each case.

For the compound `NC(=O)c1nn(-c2c(Cl)cccc2Cl)cc1Nc1cnn(CC(=O)N2CCS(=O)(=O)CC2)c1` [compound 469, 1-(2,6-dichlorophenyl)-4-((1-(2-(1,1-dioxidothiomorpholino)-2-oxoethyl)-1H-pyrazol-4-yl)amino)-1H-pyrazole-3-carboxamide], the half-maximal inhibitory concentration (IC50) in assay [1] and in assay [2] was 0.01 to 0.1 µM each time.

As for `N#Cc1cccc2nnc(-c3ccc(Nc4cn(-c5c(Cl)cccc5Cl)nc4C(N)=O)cn3)n12` [compound 476, 4-((6-(5-cyano-[1,2,4]triazolo[4,3-a]pyridin-3-yl)pyridin-3-yl)amino)-1-(2,6-dichlorophenyl)-1H-pyrazole-3-carboxamide], the IC50 was 0.01 to 0.1 µM in assay [1] and 0.1 to 1 µM in assay [2].

Regarding `CC(C)Oc1ccc(Nc2cn(-c3c(Cl)cccc3Cl)nc2C(N)=O)cc1` [compound 261, 1-(2,6-dichlorophenyl)-4-((4-isopropoxyphenyl)amino)-1H-pyrazole-3-carboxamide], the IC50 in assay [1] and in assay [2] was 0.1 to 1 µM throughout.

In the case of `NC(=O)c1nn(-c2c(Cl)cccc2Cl)cc1Nc1ccc(CC(=O)N2CCOCC2)nc1` [compound 440, 1-(2,6-dichlorophenyl)-4-((6-(2-morpholino-2-oxoethyl)pyridin-3-yl)amino)-1H-pyrazole-3-carboxamide], the IC50 lay within 0.01 to 0.1 µM in assay [1] and 0.1 to 1 µM in assay [2].

Take `Cc1cnnn1-c1ccc(Nc2cn(-c3c(Cl)cccc3Cl)nc2C(N)=O)nc1` [compound 432, 1-(2,6-dichlorophenyl)-4-((5-(5-methyl-1H-1,2,3-triazol-1-yl)pyridin-2-yl)amino)-1H-pyrazole-3-carboxamide]: the IC50 in assay [1] was in the range of 0.01 to 0.1 µM; in assay [2] it was 0.1 to 1 µM.

In the case of `COCCn1cc(C(F)(F)F)nc1-c1ccc(Nc2nn(-c3c(Cl)cccc3Cl)nc2C(N)=O)cc1` [compound 118, 2-(2,6-dichlorophenyl)-5-((4-(1-(2-methoxyethyl)-4-(trifluoromethyl)-1H-imidazol-2-yl)phenyl)amino)-2H-1,2,3-triazole-4-carboxamide], the IC50 in assay [1] was in the range of 0.01 to 0.1 µM; in assay [2], 0.1 to 1 µM.

For `Cn1ccc(Oc2ccc(Nc3cn(-c4c(Cl)cccc4Cl)nc3C(N)=O)cc2)n1` [compound 78, 1-(2,6-dichlorophenyl)-4-((4-((1-methyl-1H-pyrazol-3-yl)oxy)phenyl)amino)-1H-pyrazole-3-carboxamide], the 50% inhibitory concentration (IC50) was in the range of 0.1 to 1 µM in assay [1] and 0.01 to 0.1 µM in assay [2].

As to `COCCCNC(=O)c1ccc(Nc2cn(-c3c(Cl)cccc3Cl)nc2C(N)=O)cc1` [compound 420, 1-(2,6-dichlorophenyl)-4-((4-((3-methoxypropyl)carbamoyl)phenyl)amino)-1H-pyrazole-3-carboxamide], the IC50 in assay [1] and in assay [2] was 0.1 to 1 µM throughout.

`NC(=O)c1nn(-c2c(Cl)cccc2Cl)cc1Nc1ccc(-n2ncnc2CO)cc1` [compound 348, 1-(2,6-dichlorophenyl)-4-((4-(5-(hydroxymethyl)-1H-1,2,4-triazol-1-yl)phenyl)amino)-1H-pyrazole-3-carboxamide]: the figures for the IC50 in assay [1] and in assay [2] were 0.01 to 0.1 µM and less than 0.01 µM, respectively.

On to `Cc1ncnn1-c1ccc(Nc2cn(-c3c(Cl)cccc3Cl)nc2C(N)=O)nc1` [compound 430, 1-(2,6-dichlorophenyl)-4-((5-(5-methyl-1H-1,2,4-triazol-1-yl)pyridin-2-yl)amino)-1H-pyrazole-3-carboxamide], for which the 50% inhibitory concentration (IC50) in assay [1] and in assay [2] was 0.1 to 1 µM throughout.

For the compound `COCn1cc(C(F)(F)F)nc1-c1ccc(Nc2cn(-c3c(Cl)cccc3Cl)nc2C(N)=O)cc1` [compound 292, 1-(2,6-dichlorophenyl)-4-((4-(1-(methoxymethyl)-4-(trifluoromethyl)-1H-imidazol-2-yl)phenyl)amino)-1H-pyrazole-3-carboxamide], the figures for the concentration for half-maximal inhibition (IC50) in assay [1] and in assay [2] were 0.01 to 0.1 µM and less than 0.01 µM, respectively.

As to `COCCn1cc(C(F)(F)F)nc1-c1ccc(Nc2cn(-c3c(Cl)cccc3Cl)nc2C(N)=O)cc1` [compound 307, 1-(2,6-dichlorophenyl)-4-((4-(1-(2-methoxyethyl)-4-(trifluoromethyl)-1H-imidazol-2-yl)phenyl)amino)-1H-pyrazole-3-carboxamide], the IC50 in assay [1] is 0.1 to 1 µM; in assay [2], 0.01 to 0.1 µM.

Take `COCCNC(=O)c1ccc(Nc2nn(-c3c(Cl)cccc3Cl)nc2C(N)=O)cc1` [compound 123, 2-(2,6-dichlorophenyl)-5-((4-((2-methoxyethyl)carbamoyl)phenyl)amino)-2H-1,2,3-triazole-4-carboxamide]: the IC50 in assay [1] was less than 0.01 µM; in assay [2], 0.01 to 0.1 µM.

`NC(=O)c1nn(-c2c(Cl)cccc2Cl)nc1Nc1ccc(CC(=O)N2CC(F)C2)nc1` [compound 152, 2-(2,6-dichlorophenyl)-5-((6-(2-(3-fluoroazetidin-1-yl)-2-oxoethyl)pyridin-3-yl)amino)-2H-1,2,3-triazole-4-carboxamide]: the 50% inhibitory concentration (IC50) in assay [1] was 0.01 to 0.1 µM; in assay [2], 0.1 to 1 µM.

On to `CC(F)(F)c1nnnn1-c1ccc(Nc2cn(-c3c(Cl)cccc3Cl)nc2C(N)=O)cn1` [compound 460, 1-(2,6-dichlorophenyl)-4-((6-(5-(1,1-difluoroethyl)-1H-tetrazol-1-yl)pyridin-3-yl)amino)-1H-pyrazole-3-carboxamide], for which the IC50 in assay [1] and in assay [2] was 0.1 to 1 µM throughout.

For `NC(=O)c1nn(-c2c(Cl)cccc2Cl)cc1Nc1ccc(C(=O)N2CC[C@H](N)C2)nc1` [compound 357, (S)-4-((6-(3-aminopyrrolidine-1-carbonyl)pyridin-3-yl)amino)-1-(2,6-dichlorophenyl)-1H-pyrazole-3-carboxamide], the IC50 in assay [1] was in the range of 0.1 to 1 µM; in assay [2] it was 0.01 to 0.1 µM.

Take `Cn1nc(C(F)(F)F)nc1-c1ccc(Nc2cn(-c3c(Cl)cccc3Cl)nc2C(N)=O)cc1` [compound 215, 1-(2,6-dichlorophenyl)-4-((4-(1-methyl-3-(trifluoromethyl)-1H-1,2,4-triazol-5-yl)phenyl)amino)-1H-pyrazole-3-carboxamide]: the results for the concentration for half-maximal inhibition (IC50) in assay [1] and in assay [2] were 0.01 to 0.1 µM and less than 0.01 µM, respectively.

As for `NC(=O)c1nn(-c2c(Cl)cccc2Cl)cc1Nc1ccc(C(=O)N2CCN(CC(F)(F)F)CC2)cc1` [compound 93, 1-(2,6-dichlorophenyl)-4-((4-(4-(2,2,2-trifluoroethyl)piperazine-1-carbonyl)phenyl)amino)-1H-pyrazole-3-carboxamide], the figures for the IC50 in assay [1] and in assay [2] were 0.1 to 1 µM and 0.01 to 0.1 µM, respectively.

Turning to `NC(=O)c1nn(-c2c(Cl)cccc2Cl)cc1Nc1ccc(-c2nnccc2Cl)cc1` [compound 67, 4-((4-(4-chloropyridazin-3-yl)phenyl)amino)-1-(2,6-dichlorophenyl)-1H-pyrazole-3-carboxamide], the IC50 in assay [1] and in assay [2] was 0.1 to 1 µM in each case.

Turning to `NC(=O)c1nn(-c2c(Cl)cccc2Cl)cc1Nc1ccc(C(=O)N2CC(O)C2)cn1` [compound 439, 1-(2,6-dichlorophenyl)-4-((5-(3-hydroxyazetidine-1-carbonyl)pyridin-2-yl)amino)-1H-pyrazole-3-carboxamide], the IC50 fell in the range of 0.01 to 0.1 µM in assay [1] and 0.1 to 1 µM in assay [2].

For the compound `COc1ccc(Cn2cc(Nc3cn(-c4c(Cl)cccc4Cl)nc3C(N)=O)cn2)cc1` [compound 392, 1-(2,6-dichlorophenyl)-4-((1-(4-methoxybenzyl)-1H-pyrazol-4-yl)amino)-1H-pyrazole-3-carboxamide], the half-inhibitory concentration (IC50) in assay [1] and in assay [2] was 0.1 to 1 µM each time.

On to `CN1CCN(C(=O)c2ccc(Nc3cn(-c4c(Cl)cccc4Cl)nc3C(N)=O)nc2)CC1` [compound 370, 1-(2,6-dichlorophenyl)-4-((5-(4-methylpiperazine-1-carbonyl)pyridin-2-yl)amino)-1H-pyrazole-3-carboxamide], for which the IC50 was in the range of 0.1 to 1 µM in assay [1] and 0.01 to 0.1 µM in assay [2].

On to `NC(=O)c1nn(-c2c(Cl)cccc2Cl)cc1Nc1ccc(N2CCOCC2)cn1` [compound 428, 1-(2,6-dichlorophenyl)-4-((5-morpholinopyridin-2-yl)amino)-1H-pyrazole-3-carboxamide], for which the IC50 in assay [1] and in assay [2] was 0.1 to 1 µM throughout.

With `NC(=O)c1nn(-c2c(Cl)cccc2Cl)cc1Nc1ccc(C(=O)N2CCN(C3CC3)CC2)nc1` [compound 364, 4-((6-(4-cyclopropylpiperazine-1-carbonyl)pyridin-3-yl)amino)-1-(2,6-dichlorophenyl)-1H-pyrazole-3-carboxamide], the IC50 is 0.1 to 1 µM in assay [1] and 0.01 to 0.1 µM in assay [2].
